Reference: patent US12209102B2, “Heterocyclic compounds and uses thereof” (Kumquat Biosciences Inc., priority 2022, dated 2025)

Tests used:
K-Ras G12D = molecular target: T1, K-Ras G12D (Homo sapiens, UniProt P01116, G12D); test: HTRF resonance energy transfer assay, K-Ras G12D / SOS1 interaction; type: biochemical; conditions: HTRF assay of Example 5; read-out: IC50 against K-Ras G12D
T1 construct: made in house; host or cells: E. coli BL21 (DE3)
Procedure, shortened: (§1)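 Compounds, tested in duplicate at 10 μM down to 0.01 μM, were read after about 10 min or more by HTRF as the 665/620 nm emission ratio (337 nm excitation) to derive IC50. This ratio reports FRET between an anti-GST-Eu donor on GST-K-Ras (wild-type or mutant) and an anti-6His-XL665 acceptor on His-hSOS1. Buffer: ~5 mM HEPES pH 7.4, 150 mM NaCl, 1 mM DTT, 0.05% BSA, 0.0025% Igepal.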

K-Ras G12S = molecular target: T2, K-Ras G12S (Homo sapiens, UniProt P01116, G12S); test: HTRF resonance energy transfer assay, K-Ras G12S / SOS1 interaction; type: biochemical; conditions: HTRF assay of Example 5; read-out: IC50 against K-Ras G12S
T2 construct: made in house; host or cells: E. coli BL21 (DE3)
Procedure, shortened: as §1

K-Ras G12V = molecular target: T3, K-Ras G12V (Homo sapiens, UniProt P01116, G12V); test: HTRF resonance energy transfer assay, K-Ras G12V / SOS1 interaction; type: biochemical; conditions: HTRF assay of Example 5; read-out: IC50 against K-Ras G12V
T3 construct: made in house; host or cells: E. coli BL21 (DE3)
Procedure, shortened: as §1

K-Ras WT = molecular target: T4, K-Ras WT (Homo sapiens, UniProt P01116); test: HTRF resonance energy transfer assay, K-Ras WT / SOS1 interaction; type: biochemical; conditions: HTRF assay of Example 5; read-out: IC50 against K-Ras WT
T4 construct: made in house; host or cells: E. coli BL21 (DE3)
Procedure, shortened: as §1

GP2D cells = test: Ras cellular assay, growth of cells with K-Ras G12D mutation (CellTiter-Glo); type: cell-based; conditions: cell growth, Example 9, G12D mutation, read-out: IC50 against GP2D cells
SW620 cells = test: Ras cellular assay, growth of cells with K-Ras G12V mutation (CellTiter-Glo); type: cell-based; conditions: Homo sapiens, SW-620; cell growth, Example 9, G12V mutation; read-out: IC50 against SW620 cells
Procedure, shortened: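 IC50 values came from a four-parameter fit of CellTiter-Glo viability, read roughly 6 days after dosing with e.g. a 10-point threefold dilution series. G12V-mutant SW620 cells (e.g. 800 per well) had been plated the previous day in RPMI-1640/10% heat-inactivated FBS, on tissue culture-treated or ultra-low attachment plates.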

T4 sequence (P01116 1-188 isoform P01116-2): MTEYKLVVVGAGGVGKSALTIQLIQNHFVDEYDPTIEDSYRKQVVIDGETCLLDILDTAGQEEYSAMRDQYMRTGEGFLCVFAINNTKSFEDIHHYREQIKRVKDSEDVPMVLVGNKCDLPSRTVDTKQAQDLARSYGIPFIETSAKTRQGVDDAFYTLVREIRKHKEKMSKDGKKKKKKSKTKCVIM
T3 sequence (P01116 1-188 isoform P01116-2 G12V): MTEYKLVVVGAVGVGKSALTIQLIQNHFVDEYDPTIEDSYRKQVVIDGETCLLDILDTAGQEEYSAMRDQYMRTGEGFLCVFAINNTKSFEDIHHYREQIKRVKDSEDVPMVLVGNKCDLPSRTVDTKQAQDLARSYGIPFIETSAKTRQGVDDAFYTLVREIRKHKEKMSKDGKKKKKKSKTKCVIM
T2 sequence (P01116 1-188 isoform P01116-2 G12S): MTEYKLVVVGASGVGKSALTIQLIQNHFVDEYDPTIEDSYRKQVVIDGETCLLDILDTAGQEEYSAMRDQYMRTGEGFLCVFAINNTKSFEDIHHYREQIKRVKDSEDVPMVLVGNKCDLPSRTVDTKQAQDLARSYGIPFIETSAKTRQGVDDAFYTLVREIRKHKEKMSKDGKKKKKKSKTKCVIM
T1 sequence (P01116 1-188 isoform P01116-2 G12D): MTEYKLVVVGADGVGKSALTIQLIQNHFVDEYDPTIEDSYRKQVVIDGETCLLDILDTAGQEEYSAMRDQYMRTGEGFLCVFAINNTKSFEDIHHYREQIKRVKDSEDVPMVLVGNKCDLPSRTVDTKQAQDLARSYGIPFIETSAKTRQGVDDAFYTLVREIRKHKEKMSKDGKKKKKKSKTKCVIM

Row | IC50 (K-Ras G12D) | IC50 (K-Ras G12S) | IC50 (K-Ras G12V) | IC50 (K-Ras WT) | IC50 (SW620 cells) | Compound | IC50 (GP2D cells)
1 | < 100 nM | < 100 nM | < 100 nM | < 100 nM | < 5000 nM | CN(C)CCCN1c2nc(OC[C@@]34CCCN3C[C@H](F)C4)nc3c(F)c(-c4ccc(F)c5sc(N)c(C#N)c45)c(Cl)c(c23)OCC1CC#N (stereo partly drawn) [Compound 896, 2-amino-4-(8-chloro-5-(cyanomethyl)-4-(3-(dimethylamino)propyl)-10-fluoro-2-(((2R,7aS)-2-fluorotetrahydro-1H-pyrrolizin-7a(5H)-yl)methoxy)-5,6-dihydro-4H-[1,4]oxazepino[5,6,7-de]quinazolin-9-yl)-7-fluorobenzo[b]thiophene-3-carbonitrile] | < 500 nM
2 | < 100 nM | < 100 nM | < 100 nM | < 100 nM | < 5000 nM | C[C@@H]1CCOc2c(Cl)c(-c3ccc(F)c4sc(N)c(C#N)c34)c(F)c3nc(OC[C@@]45CCCN4C[C@H](F)C5)nc(c23)N1C [Compound 1222, 2-amino-4-((R)-9-chloro-11-fluoro-2-(((2R,7aS)-2-fluorotetrahydro-1H-pyrrolizin-7a(5H)-yl)methoxy)-4,5-dimethyl-4,5,6,7-tetrahydro-[1,5]oxazocino[4,3,2-de]quinazolin-10-yl)-7-fluorobenzo[b]thiophene-3-carbonitrile] | < 500 nM
3 | < 100 nM | < 100 nM | < 100 nM | < 100 nM | < 5000 nM | N#Cc1c(N)sc2c(F)ccc(-c3c(Cl)c4c5c(nc(OC[C@@]67CCCN6C[C@H](F)C7)nc5c3F)N(C3CCCCC(O)C3)CCO4)c12 (stereo partly drawn) [Compound 795, 2-amino-4-(8-chloro-10-fluoro-2-(((2R,7aS)-2-fluorotetrahydro-1H-pyrrolizin-7a(5H)-yl)methoxy)-4-(3-hydroxycycloheptyl)-5,6-dihydro-4H-[1,4]oxazepino[5,6,7-de]quinazolin-9-yl)-7-fluorobenzo[b]thiophene-3-carbonitrile] | < 500 nM
4 | < 100 nM | < 100 nM | < 100 nM | < 100 nM | < 5000 nM | CN1c2nc(OC[C@@]34CCCN3C[C@H](F)C4)nc3c(F)c(-c4ccc(F)c5sc(N)c(C#N)c45)c(Cl)c(c23)OC[C@@H]1CNC=O [Compound 1097, N-(((5S)-9-(2-amino-3-cyano-7-fluorobenzo[b]thiophen-4-yl)-8-chloro-10-fluoro-2-(((2R,7aS)-2-fluorotetrahydro-1H-pyrrolizin-7a(5H)-yl)methoxy)-4-methyl-5,6-dihydro-4H-[1,4]oxazepino[5,6,7-de]quinazolin-5-yl)methyl)formamide] | < 500 nM
5 | < 100 nM | < 100 nM | < 100 nM | < 100 nM | < 5000 nM | CN(C)C1(CN2CCOc3c(Cl)c(-c4ccc(F)c5sc(N)c(C#N)c45)c(F)c4nc(OC[C@@]56CCCN5C[C@H](F)C6)nc2c34)CCC1 [Compound 606, 2-amino-4-(8-chloro-4-((1-(dimethylamino)cyclobutyl)methyl)-10-fluoro-2-(((2R,7aS)-2-fluorotetrahydro-1H-pyrrolizin-7a(5H)-yl)methoxy)-5,6-dihydro-4H-[1,4]oxazepino[5,6,7-de]quinazolin-9-yl)-7-fluorobenzo[b]thiophene-3-carbonitrile] | < 500 nM
6 | < 100 nM | < 100 nM | < 100 nM | < 100 nM | < 5000 nM | N#Cc1c(N)sc2c(F)ccc(-c3c(Cl)c4c5c(nc(OC[C@@]67CCCN6C[C@H](F)C7)nc5c3F)N(CCC(F)F)[C@@H](C(F)F)CO4)c12 [Compound 1035, 2-amino-4-((R)-8-chloro-5-(difluoromethyl)-4-(3,3-difluoropropyl)-10-fluoro-2-(((2R,7aS)-2-fluorotetrahydro-1H-pyrrolizin-7a(5H)-yl)methoxy)-5,6-dihydro-4H-[1,4]oxazepino[5,6,7-de]quinazolin-9-yl)-7-fluorobenzo[b]thiophene-3-carbonitrile] | < 500 nM
7 | < 100 nM | < 100 nM | < 100 nM | < 100 nM | < 5000 nM | C[C@H](O)[C@H]1[C@H](C)Oc2c(Cl)c(-c3ccc(F)c4sc(N)c(C#N)c34)c(F)c3nc(OC[C@@]45CCCN4C[C@H](F)C5)nc(c23)N1CC(F)F [Compound 1042, 2-amino-4-((5S,6S)-8-chloro-4-(2,2-difluoroethyl)-10-fluoro-2-(((2R,7aS)-2-fluorotetrahydro-1H-pyrrolizin-7a(5H)-yl)methoxy)-5-((S)-1-hydroxyethyl)-6-methyl-5,6-dihydro-4H-[1,4]oxazepino[5,6,7-de]quinazolin-9-yl)-7-fluorobenzo[b]thiophene-3-carbonitrile] | < 500 nM
8 | < 100 nM | < 100 nM | < 100 nM | < 100 nM | < 5000 nM | N#Cc1c(N)sc2c(F)ccc(-c3c(Cl)c4c5c(nc(OC[C@@]67CCCN6C[C@H](F)C7)nc5c3F)N(CC(F)F)[C@H](C3(C#N)CC3)CO4)c12 [Compound 722, 2-amino-4-((R)-8-chloro-5-(1-cyanocyclopropyl)-4-(2,2-difluoroethyl)-10-fluoro-2-(((2R,7aS)-2-fluorotetrahydro-1H-pyrrolizin-7a(5H)-yl)methoxy)-5,6-dihydro-4H-[1,4]oxazepino[5,6,7-de]quinazolin-9-yl)-7-fluorobenzo[b]thiophene-3-carbonitrile] | < 500 nM
9 | < 100 nM | < 100 nM | < 100 nM | < 100 nM | < 5000 nM | N#Cc1c(N)sc2c(F)ccc(-c3c(Cl)c4c5c(nc(OC[C@@]67CCCN6C[C@H](F)C7)nc5c3F)N(CC(F)F)[C@@H](C3CC3)CO4)c12 [Compound 1022, 2-amino-4-((S)-8-chloro-5-cyclopropyl-4-(2,2-difluoroethyl)-10-fluoro-2-(((2R,7aS)-2-fluorotetrahydro-1H-pyrrolizin-7a(5H)-yl)methoxy)-5,6-dihydro-4H-[1,4]oxazepino[5,6,7-de]quinazolin-9-yl)-7-fluorobenzo[b]thiophene-3-carbonitrile] | < 500 nM
10 | < 100 nM | < 100 nM | < 100 nM | < 100 nM | < 5000 nM | CC(O)C1COc2c(Cl)c(-c3ccc(F)c4sc(N)c(C#N)c34)c(F)c3nc(OC[C@@]45CCCN4C[C@H](F)C5)nc(c23)N1CC1CCNCC1 (stereo partly drawn) [Compound 1125, 2-amino-4-(8-chloro-10-fluoro-2-(((2R,7aS)-2-fluorotetrahydro-1H-pyrrolizin-7a(5H)-yl)methoxy)-5-(1-hydroxyethyl)-4-(piperidin-4-ylmethyl)-5,6-dihydro-4H-[1,4]oxazepino[5,6,7-de]quinazolin-9-yl)-7-fluorobenzo[b]thiophene-3-carbonitrile] | < 500 nM
11 | < 100 nM | < 100 nM | < 100 nM | < 100 nM | < 5000 nM | C[C@@H]1C[C@@H](N2CCOc3c(Cl)c(-c4ccc(F)c5sc(N)c(C#N)c45)c(F)c4nc(OC[C@@]56CCCN5C[C@H](F)C6)nc2c34)CN1 [Compound 1016, 2-amino-4-(8-chloro-10-fluoro-2-(((2R,7aS)-2-fluorotetrahydro-1H-pyrrolizin-7a(5H)-yl)methoxy)-4-((3R,5R)-5-methylpyrrolidin-3-yl)-5,6-dihydro-4H-[1,4]oxazepino[5,6,7-de]quinazolin-9-yl)-7-fluorobenzo[b]thiophene-3-carbonitrile] | < 500 nM
